According to patent publication US20100120050A1, “Biomarkers For Assessing Altherosclerotic Potential” (ENTELOS, INC., priority 2008, published 2010):
Like-named read-outs stand apart in the source and are kept apart here.

Legend:
[1] = clinical trials and post-marketing; cited from earlier work
hepatic genes (liver) = system: hepatic genes (liver)
Protocol: While the molecular target for PPARγ is not in the liver, it represents the effects of changes in metabolism of the whole animal, which impact liver lipoprotein production and clearance.
Male Sprague-Dawley (Crl:CD® (SD)(IGS)BR) rats (Charles River Laboratories, Portage, Mich.), weight matched, 7 to 8 weeks of age, were housed individually in hanging, stainless steel, wire-bottom cages in a temperature (66-77° F.), light (12-hour dark/light cycle) and humidity (30-70%) controlled room. Water and rodent diet were available ad libitum throughout the 5 day acclimatization period and during the 5 day treatment period. Housing and treatment of the animals were in accordance with regulations outlined in the USDA Animal Welfare Act (9 CFR Parts 1, 2 and 3).
Rats (three per group) were dosed daily at either a low or high dose. […] Animals were necropsied on days 0.25, 1, 3, and 5. Up to 13 tissues (e.g., liver, kidney, heart, bone marrow, blood, spleen, brain, intestine, glandular and nonglandular stomach, lung, muscle, and gonads) were collected for histopathological evaluation and microarray expression profiling on the Affymetrix Rat Whole Genome RG230 v2 platform. In addition, a clinical pathology panel consisting of 37 clinical chemistry and hematology parameters was generated from blood samples collected on days 3 and 5.
Gene expression profiling, data processing and quality control were performed using protocols recommended by. Briefly, liver samples from 3 rats were chosen at random from each treatment and control group for each timepoint for expression profile analysis on the Affymetrix Rat Whole Genome RG230 v2 microarray (Affymetrix, Santa Clara, Calif.). Log transformed signal data for all probes were array-wise normalized using the Affymetrix MASS algorithm. Expression log ratios of base 10 (log(10) ratios) were computed as the difference between the logs of the averaged normalized experimental signals and the averaged normalized time-matched vehicle control signals for each gene.

## CN(CCOc1ccc(CC2SC(=O)NC2=O)cc1)c1ccccn1 (stereo not shown) [rosiglitazone]
[1]
  risk of cardiovascular events: paradoxically increased risk of cardiovascular events
Hepatic genes (liver); rat liver, probe AA891362, Rn.92789, oral gavage, experiments of Table 3
  Average Log (10) Ratio: L-3-hydroxyacyl-Coenzyme A dehydrogenase, short chain: −0.205
Hepatic genes (liver); rat liver, probe AA899304, Rn.4054, oral gavage, experiments of Table 3
  Average Log (10) Ratio: acetyl-coenzyme A acetyltransferase 1: 0.546
Hepatic genes (liver); rat liver, probe AA945548, Rn.91296, oral gavage, experiments of Table 3
  Average Log (10) Ratio: transferrin: −0.376
Hepatic genes (liver); rat liver, probe AF286470, Rn.801, oral gavage, experiments of Table 3
  Average Log (10) Ratio: sterol regulatory element binding factor 1: −0.464
Hepatic genes (liver); rat liver, probe AI176576, Rn.6975, oral gavage, experiments of Table 3
  Average Log (10) Ratio: CCAAT/enhancer binding protein (C/EBP), delta: −0.407
Hepatic genes (liver); rat liver, probe AI179334, Rn.9486, oral gavage, experiments of Table 3
  Average Log (10) Ratio: fatty acid synthase: −0.182
Hepatic genes (liver); rat liver, probe AI385341, Rn.9753, oral gavage, experiments of Table 3
  Average Log (10) Ratio: peroxisome proliferator activated receptor alpha: 0.461
Hepatic genes (liver); rat liver, probe AI406700, Rn.9737, oral gavage, experiments of Table 3
  Average Log (10) Ratio: perilipin: 0.137
Hepatic genes (liver); rat liver, probe AI713204, Rn.40396, oral gavage, experiments of Table 3
  Average Log (10) Ratio: monoglyceride lipase: 0.439
Hepatic genes (liver); rat liver, probe AW526669, Rn.169550, oral gavage, experiments of Table 3
  Average Log (10) Ratio: phosphatidylinositol 3-kinase, C2 domain containing, gamma polypeptide: 0.692
Hepatic genes (liver); rat liver, probe AY081195, Rn.40396, oral gavage, experiments of Table 3
  Average Log (10) Ratio: monoglyceride lipase: 0.621
Hepatic genes (liver); rat liver, probe BE105603, Rn.4090, oral gavage, experiments of Table 3
  Average Log (10) Ratio: mitogen-activated protein kinase 8: −0.104
Hepatic genes (liver); rat liver, probe BF396857, Rn.46942, oral gavage, experiments of Table 3
  Average Log (10) Ratio: ELOVL family member 6, elongation of long chain fatty acids (yeast): 0.495
Hepatic genes (liver); rat liver, probe BF398848, Rn.801, oral gavage, experiments of Table 3
  Average Log (10) Ratio: sterol regulatory element binding factor 1: −0.461
Hepatic genes (liver); rat liver, probe BF407188, Rn.15135, oral gavage, experiments of Table 3
  Average Log (10) Ratio: RIKEN cDNA 1500016L11 (DBSS): −0.448
Hepatic genes (liver); rat liver, probe BG372713, Rn.40396, oral gavage, experiments of Table 3
  Average Log (10) Ratio: monoglyceride lipase: 0.551
Hepatic genes (liver); rat liver, probe BG376902, Rn.11094, oral gavage, experiments of Table 3
  Average Log (10) Ratio: Pyruvate carboxylase: −0.172
Hepatic genes (liver); rat liver, probe BG377636, Rn.98393, oral gavage, experiments of Table 3
  Average Log (10) Ratio: acetyl CoA transferase-like (DBSS): 0.519
Hepatic genes (liver); rat liver, probe BI278687, Rn.117434, oral gavage, experiments of Table 3
  Average Log (10) Ratio: phospholipid transfer protein (DBSS): −0.378
Hepatic genes (liver); rat liver, probe BI281656, Rn.39132, oral gavage, experiments of Table 3
  Average Log (10) Ratio: guanine nucleotide binding protein, alpha stimulating, olfactory type: 0.107
Hepatic genes (liver); rat liver, probe BI282488, Rn.3786, oral gavage, experiments of Table 3
  Average Log (10) Ratio: acetyl-Coenzyme A acyltransferase 2 (mitochondrial 3-oxoacyl-Coenzyme A thiolase): 0.679
Hepatic genes (liver); rat liver, probe BI288209, Rn.44456, oral gavage, experiments of Table 3
  Average Log (10) Ratio: glycerol-3-phosphate acyltransferase, mitochondrial: −0.183
Hepatic genes (liver); rat liver, probe BI292438, Rn.79322, oral gavage, experiments of Table 3
  Average Log (10) Ratio: elongation of very long chain fatty acids (FEN1/Elo2, SUR4/Elo3, yeast)-like 3 (DBSS): −0.042
Hepatic genes (liver); rat liver, probe BI850137, Rn.83595, oral gavage, experiments of Table 3
  Average Log (10) Ratio: NCI_CGAP_Emb2 cDNA clone IMAGE: 4176354: −0.414
Hepatic genes (liver); rat liver, probe BM389330, Rn.18101, oral gavage, experiments of Table 3
  Average Log (10) Ratio: pyruvate dehydrogenase kinase, isoenzyme 3 (mapped): −0.646
Hepatic genes (liver); rat liver, probe BM390399, Rn.9437, oral gavage, experiments of Table 3
  Average Log (10) Ratio: 3-hydroxy-3-methylglutaryl-Coenzyme A reductase: 0.392
Hepatic genes (liver); rat liver, probe D14989, Rn.91378, oral gavage, experiments of Table 3
  Average Log (10) Ratio: sulfotransferase family 2A, dehydroepiandrosterone (DHEA)-preferring, member 1: 0.570
Hepatic genes (liver); rat liver, probe J02582, Rn.32351, oral gavage, experiments of Table 3
  Average Log (10) Ratio: apolipoprotein E: −0.324
Hepatic genes (liver); rat liver, probe J02585, Rn.1023, oral gavage, experiments of Table 3
  Average Log (10) Ratio: stearoyl-Coenzyme A desaturase 1: −0.668
Hepatic genes (liver); rat liver, probe M14952, Rn.33815, oral gavage, experiments of Table 3
  Average Log (10) Ratio: apolipoprotein B: −0.255
Hepatic genes (liver); rat liver, probe M15114, Rn.83595, oral gavage, experiments of Table 3
  Average Log (10) Ratio: NCI_CGAP_Emb2 cDNA clone IMAGE: 4176354: 0.409
Hepatic genes (liver); rat liver, probe M30596, Rn.161920, oral gavage, experiments of Table 3
  Average Log (10) Ratio: malic enzyme 1: 0.554
Hepatic genes (liver); rat liver, probe NM_012565, Rn.10447, oral gavage, experiments of Table 3
  Average Log (10) Ratio: glucokinase: −1.066
Hepatic genes (liver); rat liver, probe NM_012620, Rn.29367, oral gavage, experiments of Table 3
  Average Log (10) Ratio: serine (or cysteine) peptidase inhibitor, clade E, member 1: 0.819
Hepatic genes (liver); rat liver, probe NM_012701, Rn.87064, oral gavage, experiments of Table 3
  Average Log (10) Ratio: adrenergic receptor, beta 1: −0.177
Hepatic genes (liver); rat liver, probe NM_012735, Rn.91375, oral gavage, experiments of Table 3
  Average Log (10) Ratio: hexokinase 2: −0.330
Hepatic genes (liver); rat liver, probe NM_012769, Rn.87228, oral gavage, experiments of Table 3
  Average Log (10) Ratio: guanylate cyclase 1, soluble, beta 3: −0.348
Hepatic genes (liver); rat liver, probe NM_012770, Rn.10933, oral gavage, experiments of Table 3
  Average Log (10) Ratio: guanylate cyclase 1, soluble, beta 2: −0.465
Hepatic genes (liver); rat liver, probe NM_012806, Rn.9911, oral gavage, experiments of Table 3
  Average Log (10) Ratio: mitogen activated protein kinase 10: 0.458
Hepatic genes (liver); rat liver, probe NM_012930, Rn.11389, oral gavage, experiments of Table 3
  Average Log (10) Ratio: carnitine palmitoyltransferase 2: 0.494
Hepatic genes (liver); rat liver, probe NM_013134, Rn.9437, oral gavage, experiments of Table 3
  Average Log (10) Ratio: 3-hydroxy-3-methylglutaryl-Coenzyme A reductase: 0.389
Hepatic genes (liver); rat liver, probe NM_013174, Rn.7018, oral gavage, experiments of Table 3
  Average Log (10) Ratio: transforming growth factor, beta 3: −0.380
Hepatic genes (liver); rat liver, probe NM_013200, Rn.6028, oral gavage, experiments of Table 3
  Average Log (10) Ratio: carnitine palmitoyltransferase 1b, muscle: 0.984
Hepatic genes (liver); rat liver, probe NM_017222, Rn.85891, oral gavage, experiments of Table 3
  Average Log (10) Ratio: solute carrier family 10, member 2: −0.544
Hepatic genes (liver); rat liver, probe NM_017322, Rn.9910, oral gavage, experiments of Table 3
  Average Log (10) Ratio: mitogen-activated protein kinase 9: −0.348
Hepatic genes (liver); rat liver, probe NM_017340, Rn.31796, oral gavage, experiments of Table 3
  Average Log (10) Ratio: acyl-Coenzyme A oxidase 1, palmitoyl: 0.336
Hepatic genes (liver); rat liver, probe NM_021578, Rn.40136, oral gavage, experiments of Table 3
  Average Log (10) Ratio: transforming growth factor, beta 1: −0.592
Hepatic genes (liver); rat liver, probe NM_022627, Rn.15423, oral gavage, experiments of Table 3
  Average Log (10) Ratio: protein kinase, AMP-activated, beta 2 non-catalytic subunit: −0.211
Hepatic genes (liver); rat liver, probe NM_031131, Rn.24539, oral gavage, experiments of Table 3
  Average Log (10) Ratio: transforming growth factor, beta 2: 0.020
Hepatic genes (liver); rat liver, probe NM_031559, Rn.2856, oral gavage, experiments of Table 3
  Average Log (10) Ratio: carnitine palmitoyltransferase 1a, liver: 0.264
Hepatic genes (liver); rat liver, probe NM_031976, Rn.3619, oral gavage, experiments of Table 3
  Average Log (10) Ratio: protein kinase, AMP-activated, beta 1 non-catalytic subunit: −0.409
Hepatic genes (liver); rat liver, probe NM_033352, Rn.177278, oral gavage, experiments of Table 3
  Average Log (10) Ratio: ATP-binding cassette, sub-family D (ALD), member 1 (DBSS): 0.450
Hepatic genes (liver); rat liver, probe NM_053329, Rn.164865, oral gavage, experiments of Table 3
  Average Log (10) Ratio: insulin-like growth factor binding protein, acid labile subunit: −0.658
Hepatic genes (liver); rat liver, probe NM_053551, Rn.30070, oral gavage, experiments of Table 3
  Average Log (10) Ratio: pyruvate dehydrogenase kinase, isoenzyme 4: 0.442
Hepatic genes (liver); rat liver, probe NM_053923, Rn.169550, oral gavage, experiments of Table 3
  Average Log (10) Ratio: phosphatidylinositol 3-kinase, C2 domain containing, gamma polypeptide: −0.485
Hepatic genes (liver); rat liver, probe NM_053994, Rn.11126, oral gavage, experiments of Table 3
  Average Log (10) Ratio: pyruvate dehydrogenase E1 alpha 2: −0.338
Hepatic genes (liver); rat liver, probe NM_057133, Rn.10712, oral gavage, experiments of Table 3
  Average Log (10) Ratio: nuclear receptor subfamily 0, group B, member 2: 0.367
Hepatic genes (liver); rat liver, probe NM_133618, Rn.11253, oral gavage, experiments of Table 3
  Average Log (10) Ratio: hydroxyacyl-Coenzyme A dehydrogenase/3-ketoacyl-Coenzyme A thiolase/enoyl-Coenzyme A hydratase (trifunctional protein), beta subunit: 0.409
Hepatic genes (liver); rat liver, probe NM_134382, Rn.4243, oral gavage, experiments of Table 3
  Average Log (10) Ratio: ELOVL family member 5, elongation of long chain fatty acids (yeast): −0.486
Hepatic genes (liver); rat liver, probe U08027, Rn.89705, oral gavage, experiments of Table 3
  Average Log (10) Ratio: Glycerol-3-phosphate dehydrate dehydrogenase (mtGPDH) mRNA, 3′UTR: 0.635
Hepatic genes (liver); rat liver, probe U36771, Rn.44456, oral gavage, experiments of Table 3
  Average Log (10) Ratio: glycerol-3-phosphate acyltransferase, mitochondrial: −0.156
Hepatic genes (liver); rat, in vivo, po
  Average Log (10) Ratio: Cytochrome P450, family 2, subfamily b, polypeptide 2: 0.629
  Average Log (10) Ratio: cytochrome P450, family 2, subfamily b, polypeptide 13: 0.499
  Average Log (10) Ratio: cytochrome P450, family 3, subfamily a, polypeptide 13: 0.550
  Average Log (10) Ratio: cytochrome P450, family 7, subfamily a, polypeptide 1: −0.168
  Average Log (10) Ratio: cytochrome P450, family 8, subfamily b, polypeptide 1: 0.394
